Test results taken from patent US20240100170A1, “CYCLIC-AMP RESPONSE ELEMENT BINDING PROTEIN (CBP) AND/OR ADENOVIRAL E1A BINDING PROTEIN OF 300 KDA (P300) DEGRADATION COMPOUNDS AND METHODS OF USE” (CULLGEN (SHANGHAI), INC., priority 2020, published 2024).
Like-named read-outs stand apart in the source and are kept apart here.

Experiments:
[1] = test system: LNCaP prostate cancer cell; experiment: LNCaP cell viability (CellTiter-Glo); type: cell-based; details: Homo sapiens, 72 h; LNCaP cell viability, 3 days, CellTiter-Glo; Table 4
In short: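 LNCaP cells (5000/well, RPMI 1640 + 10% FBS, 37 °C) treated with compounds in 12-point 3-fold serial dilution for three days. Viability read by CellTiter-Glo luminescence, normalized to untreated cells; IC50 from least-squares nonlinear regression.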

P300 = P300 (Homo sapiens, UniProt Q09472); experiment: percentage of inhibition (degradation) of p300 at 10 nM, Tables 2-4; type: cell-based; set-up: LNCaP or 22RV1 cells that express CBP/P300 proteins were treated with GNE-781 or the bivalent compounds; endogenous in cells; host or cells: LNCaP or 22RV1 (not given); details: read-out: Degradation (10 nM)
Chain of P300 (Q09472 whole entry): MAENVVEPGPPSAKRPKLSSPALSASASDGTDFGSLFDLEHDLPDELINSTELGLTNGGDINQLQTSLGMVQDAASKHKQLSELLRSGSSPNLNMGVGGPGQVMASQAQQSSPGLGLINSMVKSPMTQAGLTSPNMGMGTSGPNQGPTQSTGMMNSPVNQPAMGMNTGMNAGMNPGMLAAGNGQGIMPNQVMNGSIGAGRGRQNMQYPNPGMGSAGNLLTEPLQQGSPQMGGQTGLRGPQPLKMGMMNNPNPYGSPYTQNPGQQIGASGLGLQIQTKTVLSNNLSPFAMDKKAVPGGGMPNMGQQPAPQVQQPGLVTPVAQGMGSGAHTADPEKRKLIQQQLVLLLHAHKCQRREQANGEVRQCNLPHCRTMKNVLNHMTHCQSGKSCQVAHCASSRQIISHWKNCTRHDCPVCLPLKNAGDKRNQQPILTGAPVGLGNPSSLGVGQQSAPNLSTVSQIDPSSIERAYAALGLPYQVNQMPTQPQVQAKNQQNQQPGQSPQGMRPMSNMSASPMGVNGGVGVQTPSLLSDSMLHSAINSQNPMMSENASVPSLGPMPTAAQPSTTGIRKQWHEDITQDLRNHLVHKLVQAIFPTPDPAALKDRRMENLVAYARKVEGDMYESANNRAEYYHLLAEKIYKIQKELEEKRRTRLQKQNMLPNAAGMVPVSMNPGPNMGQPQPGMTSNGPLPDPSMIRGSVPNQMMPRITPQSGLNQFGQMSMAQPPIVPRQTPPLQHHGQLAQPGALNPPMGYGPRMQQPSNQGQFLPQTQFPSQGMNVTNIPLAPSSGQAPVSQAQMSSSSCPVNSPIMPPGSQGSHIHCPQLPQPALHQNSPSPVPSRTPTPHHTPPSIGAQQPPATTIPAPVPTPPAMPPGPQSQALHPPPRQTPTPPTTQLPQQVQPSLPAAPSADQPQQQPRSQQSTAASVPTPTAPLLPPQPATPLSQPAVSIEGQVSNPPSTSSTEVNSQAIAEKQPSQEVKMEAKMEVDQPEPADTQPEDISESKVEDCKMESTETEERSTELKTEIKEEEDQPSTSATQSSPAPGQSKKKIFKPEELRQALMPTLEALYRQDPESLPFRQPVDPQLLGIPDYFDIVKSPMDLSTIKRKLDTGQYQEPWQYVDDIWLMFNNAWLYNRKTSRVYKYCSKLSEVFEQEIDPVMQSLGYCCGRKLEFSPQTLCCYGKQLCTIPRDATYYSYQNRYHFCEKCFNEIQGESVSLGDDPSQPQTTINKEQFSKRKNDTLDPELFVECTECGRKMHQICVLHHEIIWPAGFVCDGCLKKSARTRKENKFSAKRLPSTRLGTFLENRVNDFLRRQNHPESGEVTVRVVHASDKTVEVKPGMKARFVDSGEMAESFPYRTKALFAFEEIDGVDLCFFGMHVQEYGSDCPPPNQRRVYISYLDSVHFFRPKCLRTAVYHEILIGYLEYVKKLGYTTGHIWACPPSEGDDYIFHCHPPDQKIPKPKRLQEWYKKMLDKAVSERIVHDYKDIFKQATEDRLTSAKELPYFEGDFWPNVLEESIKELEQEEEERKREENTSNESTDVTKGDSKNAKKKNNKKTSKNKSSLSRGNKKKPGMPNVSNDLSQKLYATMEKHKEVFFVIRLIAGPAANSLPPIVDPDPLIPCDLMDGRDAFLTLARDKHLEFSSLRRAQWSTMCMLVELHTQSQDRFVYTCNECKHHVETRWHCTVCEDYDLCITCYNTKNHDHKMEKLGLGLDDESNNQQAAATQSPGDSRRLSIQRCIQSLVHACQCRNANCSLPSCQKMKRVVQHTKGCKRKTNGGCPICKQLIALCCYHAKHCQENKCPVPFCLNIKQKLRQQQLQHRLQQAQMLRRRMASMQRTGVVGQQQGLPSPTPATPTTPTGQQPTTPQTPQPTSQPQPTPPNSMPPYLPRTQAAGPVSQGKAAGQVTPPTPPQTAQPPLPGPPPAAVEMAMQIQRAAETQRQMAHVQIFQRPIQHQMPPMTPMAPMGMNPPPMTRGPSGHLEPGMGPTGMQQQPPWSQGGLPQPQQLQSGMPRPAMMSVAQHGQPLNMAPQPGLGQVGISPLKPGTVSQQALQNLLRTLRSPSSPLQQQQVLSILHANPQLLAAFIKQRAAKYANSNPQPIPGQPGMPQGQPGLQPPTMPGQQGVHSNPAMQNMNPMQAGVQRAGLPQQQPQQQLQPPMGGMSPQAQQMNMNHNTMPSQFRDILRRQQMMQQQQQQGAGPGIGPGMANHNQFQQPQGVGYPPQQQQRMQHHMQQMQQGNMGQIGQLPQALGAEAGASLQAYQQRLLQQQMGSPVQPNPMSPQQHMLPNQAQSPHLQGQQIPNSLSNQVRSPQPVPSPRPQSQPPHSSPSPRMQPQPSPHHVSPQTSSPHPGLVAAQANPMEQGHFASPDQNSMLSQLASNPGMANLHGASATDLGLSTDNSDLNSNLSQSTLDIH
In short: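 Degradation was measured at 10 nM. Cells or tissue were lysed in RIPA with protease and phosphatase inhibitors for 30 min at 4 °C and cleared, and protein was quantified by BCA. Lysates were resolved by SDS-PAGE, detected by chemiluminescent immunoblot, and bands were quantified by densitometry.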

Work on `CC(=O)N1CCc2c(c(N3CCCc4cc(-c5cnn(C)c5)c(C(F)F)cc43)nn2C2CCN(CCCN3CCC(Cn4c(=O)n(C5CCC(=O)NC5=O)c5ccccc54)CC3)CC2)C1` (stereo not shown) [P-235, 3-(3-((1-(3-(4-(5-Acetyl-3-(7-(difluoromethyl)-6-(1-methyl-1H-pyrazol-4-yl)-3,4-dihydroquinolin-1(2H)-yl)-4,5,6,7-tetrahydro-1H-pyrazolo[4,3-c]pyridin-1-yl)piperidin-1-yl)propyl)piperidin-4-yl)methyl)-2-oxo-2,3-dihydro-1H-benzo[d]imidazol-1-yl)piperidine-2,6-dione] yielded an IC50 [1] of 844 nM and an inhibition at 0.01 µM (P300; p300, 10 nM, Table 4) of less than 20%.
`CC(=O)N1CCc2c(c(N3CCCc4cc(-c5cnn(C)c5)c(C(F)F)cc43)nn2C2CCN(C(=O)CN3CCN(CCCc4cccc5c4n(C)c(=O)n5C4CCC(=O)NC4=O)CC3)CC2)C1` (stereo not shown) [P-237, 3-(4-(3-(4-(2-(4-(5-Acetyl-3-(7-(difluoromethyl)-6-(1-methyl-1H-pyrazol-4-yl)-3,4-dihydroquinolin-1(2H)-yl)-4,5,6,7-tetrahydro-1H-pyrazolo[4,3-c]pyridin-1-yl)piperidin-1-yl)-2-oxoethyl)piperazin-1-yl)propyl)-3-methyl-2-oxo-2,3-dihydro-1H-benzo[d]imidazol-1-yl)piperidine-2,6-dione] showed an IC50 [1] of 307 nM and an inhibition at 0.01 µM (P300; p300, 10 nM, Table 4) of 20 to 50%.
For `CC(=O)N1CCc2c(c(N3CCCc4cc(-c5cnn(C)c5)c(C(F)F)cc43)nn2C2CCN(C(=O)CCN3CCN(CC#Cc4cccc5c4n(C)c(=O)n5C4CCC(=O)NC4=O)CC3)CC2)C1` (stereo not shown) [P-238, 3-(4-(3-(4-(3-(4-(5-Acetyl-3-(7-(difluoromethyl)-6-(1-methyl-1H-pyrazol-4-yl)-3,4-dihydroquinolin-1(2H)-yl)-4,5,6,7-tetrahydro-1H-pyrazolo[4,3-c]pyridin-1-yl)piperidin-1-yl)-3-oxopropyl)piperazin-1-yl)prop-1-yn-1-yl)-3-methyl-2-oxo-2,3-dihydro-1H-benzo[d]imidazol-1-yl)piperidine-2,6-dione], the IC50 [1] was 81.1 nM and the inhibition at 0.01 µM (P300; p300, 10 nM, Table 4) was 20 to 50%.
With `CC(=O)N1CCc2c(c(N3CCCc4cc(-c5cnn(C)c5)c(C(F)F)cc43)nn2C2CCN(C(=O)CCN3CCN(CCCc4cccc5c4n(C)c(=O)n5C4CCC(=O)NC4=O)CC3)CC2)C1` (stereo not shown) [P-239, 3-(4-(3-(4-(3-(4-(5-Acetyl-3-(7-(difluoromethyl)-6-(1-methyl-1H-pyrazol-4-yl)-3,4-dihydroquinolin-1(2H)-yl)-4,5,6,7-tetrahydro-1H-pyrazolo[4,3-c]pyridin-1-yl)piperidin-1-yl)-3-oxopropyl)piperazin-1-yl)propyl)-3-methyl-2-oxo-2,3-dihydro-1H-benzo[d]imidazol-1-yl)piperidine-2,6-dione] the IC50 [1] was 263 nM and the inhibition at 0.01 µM (P300; p300, 10 nM, Table 4) was less than 20%.
With `CC(=O)N1CCc2c(c(N3CCCc4cc(-c5cnn(C)c5)c(C(F)F)cc43)nn2C2CCN(C(=O)CCCCCCNc3ccc(C(=O)NC4CCC(=O)NC4=O)c4ncccc34)CC2)C1` (stereo not shown) [P-240, 5-((7-(4-(5-acetyl-3-(7-(difluoromethyl)-6-(1-methyl-1H-pyrazol-4-yl)-3,4-dihydroquinolin-1(2H)-yl)-4,5,6,7-tetrahydro-1H-pyrazolo[4,3-c]pyridin-1-yl)piperidin-1-yl)-7-oxoheptyl)amino)-N-(2,6-dioxopiperidin-3-yl)quinoline-8-carboxamide] the IC50 [1] was 1.4 nM and the inhibition at 0.01 µM (P300; p300, 10 nM, Table 4) was greater than 80%.
`CC(=O)N1CCc2c(c(N3CCCc4cc(-c5cnn(C)c5)c(C(F)F)cc43)nn2C2CCN(C(=O)CCCCNc3ccc(C(=O)NC4CCC(=O)NC4=O)c4ncccc34)CC2)C1` (stereo not shown) [P-241, 5-((5-(4-(5-acetyl-3-(7-(difluoromethyl)-6-(1-methyl-1H-pyrazol-4-yl)-3,4-dihydroquinolin-1(2H)-yl)-4,5,6,7-tetrahydro-1H-pyrazolo[4,3-c]pyridin-1-yl)piperidin-1-yl)-5-oxopentyl)amino)-N-(2,6-dioxopiperidin-3-yl)quinoline-8-carboxamide] gave an IC50 [1] of 1.4 nM and an inhibition at 0.01 µM (P300; p300, 10 nM, Table 4) greater than 80%.
For `CC(=O)N1CCc2c(c(N3CCCc4cc(-c5cnn(C)c5)c(C(F)F)cc43)nn2C2CCN(C(=O)CCCCCNc3ccc(C(=O)NC4CCC(=O)NC4=O)c4ncccc34)CC2)C1` (stereo not shown) [P-242, 5-((6-(4-(5-acetyl-3-(7-(difluoromethyl)-6-(1-methyl-1H-pyrazol-4-yl)-3,4-dihydroquinolin-1(2H)-yl)-4,5,6,7-tetrahydro-1H-pyrazolo[4,3-c]pyridin-1-yl)piperidin-1-yl)-6-oxohexyl)amino)-N-(2,6-dioxopiperidin-3-yl)quinoline-8-carboxamide], the IC50 [1] was 1.1 nM and the inhibition at 0.01 µM (P300; p300, 10 nM, Table 4) was greater than 80%.
`CC(=O)N1CCc2c(c(N3CCCc4cc(-c5cnn(C)c5)c(C(F)F)cc43)nn2C2CCN(CCCN3CCC(C#Cc4ccc5c(c4)n(C)c(=O)n5C4CCC(=O)NC4=O)CC3)CC2)C1` (stereo not shown) [P-243, 3-(5-((1-(3-(4-(5-acetyl-3-(7-(difluoromethyl)-6-(1-methyl-1H-pyrazol-4-yl)-3,4-dihydroquinolin-1(2H)-yl)-4,5,6,7-tetrahydro-1H-pyrazolo[4,3-c]pyridin-1-yl)piperidin-1-yl)propyl)piperidin-4-yl)ethynyl)-3-methyl-2-oxo-2,3-dihydro-1H-benzo[d]imidazol-1-yl)piperidine-2,6-dione] was tested, and the IC50 [1] was 0.2 nM and the inhibition at 0.01 µM (P300; p300, 10 nM, Table 4) was greater than 80%.
`CC(=O)N1CCc2c(c(N3CCCc4cc(-c5cnn(C)c5)c(C(F)F)cc43)nn2C2CCN(CCCN3CCC(CCc4ccc5c(c4)n(C)c(=O)n5C4CCC(=O)NC4=O)CC3)CC2)C1` (stereo not shown) [P-244, 3-(5-(2-(1-(3-(4-(5-acetyl-3-(7-(difluoromethyl)-6-(1-methyl-1H-pyrazol-4-yl)-3,4-dihydroquinolin-1(2H)-yl)-4,5,6,7-tetrahydro-1H-pyrazolo[4,3-c]pyridin-1-yl)piperidin-1-yl)propyl)piperidin-4-yl)ethyl)-3-methyl-2-oxo-2,3-dihydro-1H-benzo[d]imidazol-1-yl)piperidine-2,6-dione] gave an IC50 [1] of 0.8 nM and an inhibition at 0.01 µM (P300; p300, 10 nM, Table 4) greater than 80%.
With `CC(=O)N1CCc2c(c(N3CCCc4cc(-c5cnn(C)c5)c(C(F)F)cc43)nn2C2CCN(CCN3CCC4(CC3)CN(c3cccc5c3C(=O)N(C3CCC(=O)NC3=O)C5=O)C4)CC2)C1` (stereo not shown) [P-245, 4-(7-(2-(4-(5-acetyl-3-(7-(difluoromethyl)-6-(1-methyl-1H-pyrazol-4-yl)-3,4-dihydroquinolin-1(2H)-yl)-4,5,6,7-tetrahydro-1H-pyrazolo[4,3-c]pyridin-1-yl)piperidin-1-yl)ethyl)-2,7-diazaspiro[3.5]nonan-2-yl)-2-(2,6-dioxopiperidin-3-yl)isoindoline-1,3-dione] the IC50 [1] was greater than 500 nM and the inhibition at 0.01 µM (P300) was 20 to 50%.
`CC(=O)N1CCc2c(c(N3CCCc4cc(-c5cnn(C)c5)c(C(F)F)cc43)nn2C2CCN(CCC3CCN(CCCc4cccc5c4C(=O)N(C4CCC(=O)NC4=O)C5=O)CC3)CC2)C1` (stereo not shown) [P-246, 4-(3-(4-(2-(4-(5-acetyl-3-(7-(difluoromethyl)-6-(1-methyl-1H-pyrazol-4-yl)-3,4-dihydroquinolin-1(2H)-yl)-4,5,6,7-tetrahydro-1H-pyrazolo[4,3-c]pyridin-1-yl)piperidin-1-yl)ethyl)piperidin-1-yl)propyl)-2-(2,6-dioxopiperidin-3-yl)isoindoline-1,3-dione] showed an IC50 [1] of 298 nM and an inhibition at 0.01 µM (P300; p300, 10 nM, Table 4) of 20 to 50%.
Work on `CC(=O)N1CCc2c(c(N3CCCc4cc(-c5cnn(C)c5)c(C(F)F)cc43)nn2C2CCN(CCCN3CCN(c4cccc5c4C(=O)N(C4CCC(=O)NC4=O)C5=O)CC3)CC2)C1` (stereo not shown) [P-247, 4-(4-(3-(4-(5-Acetyl-3-(7-(difluoromethyl)-6-(1-methyl-1H-pyrazol-4-yl)-3,4-dihydroquinolin-1(2H)-yl)-4,5,6,7-tetrahydro-1H-pyrazolo[4,3-c]pyridin-1-yl)piperidin-1-yl)propyl)piperazin-1-yl)-2-(2,6-dioxopiperidin-3-yl)isoindoline-1,3-dione] yielded an IC50 [1] greater than 500 nM and an inhibition at 0.01 µM (P300; p300, 10 nM, Table 4) of less than 20%.
In the case of `CC(=O)N1CCc2c(c(N3CCCc4cc(-c5cnn(C)c5)c(C(F)F)cc43)nn2C2CCN(CCCC3CCN(c4cccc5c4C(=O)N(C4CCC(=O)NC4=O)C5=O)CC3)CC2)C1` (stereo not shown) [P-249, 4-(4-(3-(4-(5-acetyl-3-(7-(difluoromethyl)-6-(1-methyl-1H-pyrazol-4-yl)-3,4-dihydroquinolin-1(2H)-yl)-4,5,6,7-tetrahydro-1H-pyrazolo[4,3-c]pyridin-1-yl)piperidin-1-yl)propyl)piperidin-1-yl)-2-(2,6-dioxopiperidin-3-yl)isoindoline-1,3-dione], the IC50 [1] is reported as 0.1 nM and the inhibition at 0.01 µM (P300; p300, 10 nM, Table 4) is reported as greater than 80%.
`CC(=O)N1CCc2c(c(N3CCCc4cc(-c5cnn(C)c5)c(C(F)F)cc43)nn2C2CCN(CCCN3CCC(C#Cc4cccc5c4n(C)c(=O)n5C4CCC(=O)NC4=O)CC3)CC2)C1` (stereo not shown) [P-250, 3-(4-((1-(3-(4-(5-acetyl-3-(7-(difluoromethyl)-6-(1-methyl-1H-pyrazol-4-yl)-3,4-dihydroquinolin-1(2H)-yl)-4,5,6,7-tetrahydro-1H-pyrazolo[4,3-c]pyridin-1-yl)piperidin-1-yl)propyl)piperidin-4-yl)ethynyl)-3-methyl-2-oxo-2,3-dihydro-1H-benzo[d]imidazol-1-yl)piperidine-2,6-dione] was tested, and the IC50 [1] was 0.3 nM and the inhibition at 0.01 µM (P300; p300, 10 nM, Table 4) was greater than 80%.
